Data published in US6410012B1, “Antimicrobial mediated bacterial DNA delivery” (The United States of America as represented by the …, priority 1997, dated 2002).

Experiments:
BHK cells [1] = experiment: viable bacterial counts recovered from infected BHK cells; assay type: cell-based, baby hamster
Experimental: (§1) The protocol used for these experiments consisted of diluting an overnight culture of the bacteria 1 in 50 and allowing it to grow to midlog phase, approximately 2.5 hours. The midlog cultures were then concentrated in Hank's Balanced Salts by centrifugation to approximately 10^9 bacteria per milliliter and a small aliquot was taken to determine the midlog bacterial count. Two milliliters of bacteria were added to the appropriate semi-confluent flask of BHK cells and allowed to incubate for ninety minutes at 37° C. and 5% CO2. After the incubation, the cells were rinsed with Hank's Balanced Salts (Sigma). In most cases the flasks were treated with complete DMEM containing […] gentamicin to kill all extracellular bacteria. Either antibiotic was then added at the designated time.
Harvesting of cells was carried out as follows. At the appropriate time point media was removed from the flasks and the flasks were rinsed thoroughly with Hank's Balanced Salts followed by Edda Twiddy's EDTA. Flasks were then treated with 5 milliliters of Trypsin-EDTA for 5 minutes at 37° C. and 5% CO2 to lift the adherent mammalian cells from the flask. Ten milliliters of room temperature DMEM with serum was added to inactivate the Trypsin-EDTA. The cells were pelleted at 2000 rpm for 12 minutes at room temperature and resuspended in 10 milliliters of phosphate buffered saline (PBS). […]

BHK cells [2] = experiment: β-galactosidase activity in lysates of BHK cells infected with Shigella strains (plasmid DNA delivery); assay type: cell-based, baby hamster; details: for ability of the antimicrobial to mediate bacterial plasmid DNA delivery: attenuated Shigella flexneri not programmed to lyse, in BHK cells
Experimental: as §1
Harvesting of cells was carried out as follows. At the appropriate time point media was removed from the flasks and the flasks were rinsed thoroughly with Hank's Balanced Salts followed by Edda Twiddy's EDTA. Flasks were then treated with 5 milliliters of Trypsin-EDTA for 5 minutes at 37° C. and 5% CO2 to lift the adherent mammalian cells from the flask. Ten milliliters of room temperature DMEM with serum was added to inactivate the Trypsin-EDTA. The cells were pelleted at 2000 rpm for 12 minutes at room temperature and resuspended in 10 milliliters of phosphate buffered saline (PBS).
A 100 μl aliquot was taken and diluted in 0.1 % Triton X-100 and plated on diaminopimelic acid (DAP) supplemented congo red (Sigma) tryptic soy agar for 15D or TSA without DAP for SC602. The remainder was again pelleted and resuspended in 1.3 ml PM-2 buffer. 30 μl of 10% Triton X-100 was added and the sample was incubated at room temperature and vortexed frequently for ten minutes to lyse the BHK cells. The cellular debris was pelleted for […] at 13500×g and 4° C.
Four hundred microliters of the supernatant was combined with 400 μl of PM-2 buffer in a spectrophotometric cuvette and allowed to equilibrate to 37° C. 200 μl of ONPG reagent is then added to each sample and any applicable standards. The samples were incubated at 37° C. and timed until a vibrant yellow color appeared, at which point the reaction was complete. The absorbance of each sample was measured at 420 nm and recorded. β-galactosidase activity was calculated as Ab420×380/Time (minutes). To determine the total amount of protein present in each assayed sample 200 μl of cold (−20° C.) acetone was added to 50 μl of the above supernatants, vortexed thoroughly and stored at −20° C. for 30 minutes. The samples were then pelleted for 10 minutes at 14000 rpm and the supernatant was discarded. Samples were allowed to dry in a heated evacuating centrifuge and then resuspended in 50 μl dissociation buffer. The protein concentration was then determined using a standard BCA (Pierce) protein determination protocol. Results are reported as β-galactosidase activity per mg of protein.

SMILES	loss of viable bacteria (BHK cells [1]; 15D(pCMVβ) infected BHK cells, treatment right after to two hours after the adherence/invasion step)	effect on β-galactosidase activity (BHK cells [2]; 15D(pCMVβ) infected BHK cells, treated at various times after the adherence/invasion step)	effect on delivery of plasmid DNA by 15D(pCMVβ) (BHK cells [2]; 15D(pCMVβ) infected monolayers treated just after the adherence/invasion step)	ability of the antimicrobial to mediate bacterial plasmid DNA delivery (BHK cells [2]; SC602(pCMVβ))	effect on number of viable bacteria (BHK cells [1]; after the addition of azithromycin to infected BHK cells)	effect of time of addition on β-galactosidase activity (BHK cells [2]; addition 1 to 2 hours after adherence/invasion compared to just after, SC602(pCMVβ))
C[C@@H]1C[C@@H]([C@H](O)CC2CC(=O)NC(=O)C2)C(=O)[C@@H](C)C1 [cyclohexamide]	1 log	inhibition of β-galactosidase activity				
O=C(O)c1cn(C2CC2)c2cc(N3CCNCC3)c(F)cc2c1=O [ciprofloxacin]			inhibited delivery of the plasmid DNA	unable to mediate DNA delivery		
CC[C@H]1OC(=O)[C@H](C)[C@@H](O[C@H]2C[C@@](C)(OC)[C@@H](O)[C@H](C)O2)[C@H](C)[C@@H](O[C@@H]2O[C@H](C)C[C@H](N(C)C)[C@H]2O)[C@](C)(O)C[C@@H](C)CN(C)[C@H](C)[C@@H](O)[C@]1(C)O [azithromycin]				capable of mediating bacterial-based plasmid DNA delivery	no dramatic decrease in the number of viable bacteria was detected	greatly increased the amount of β-galactosidase activity
